Entries after “also recorded” stand apart in the source; their conditions may differ.
Test system: SKOV3 cells
Assay: Effect of SAHA on SKOV3 3D aggregates and cellular bridges cultured on Si—TiB2 substrate
Type: cell-based
Description: Cell culture of ovarian cancer cell lines: SKOV3 and OVCAR3 cell lines were cultured in Cancer Media (CM) ([…] with glutamine (02-0205 VWR Life Science), 1% antibiotics (Sigma-Aldrich A5955), and 0.1% insulin (ABM TM053)). For cell culture on substrates CM was supplemented with 10 ng/mL human FGF2 (Sigma-Aldrich F0291)+1% heparin (Sigma-Aldrich H3393). Cells were cultured in a humidified incubator at 37° C. with 5% CO2.
The inventors used their Si-diborides substrates (described in [200]) for culture of SKOV3 (ATCC® HTB-77™) cancer cells of high invasive potential. Cells were seeded on Si—TiB2 substrates (2×2 cm) at a density of 600/mm^2, and each substrate will be placed in a well of a 24-well dish and cultured in RPMI 1640 with glutamine, 20% FBS, 1% antibiotics, 0.01 mg/mL Insulin, 10 ng/ml FGF2 and 1% heparin 1 over 10 days to establish a monolayer (days 1-3) or allowed to form 3D aggregates (days 4-10). A 2×2 cm substrate can accommodate at least 500, 300 μm circle patterns (aka 500 3D aggregates of ˜150-200 μm diameter and 60-80 μm thickness). Based on preliminary data, the rate of “cellular bridge” formation is 13%/substrate or 50%/aggregate. As shown in FIGS. 9A-C, FIGS. 10A-C and FIG. 11A-B, highly invasive SKOV3 begin as monolayers and then self-assemble to form 3D aggregates. Importantly, the inventors are able to control dynamics of aggregation and size and number of aggregates by tuning pattern geometry and cell seeding density. 3D aggregates of static (compact aggregates without any migratory sequalae) and migratory phenotype (identified via cells migrating away from an aggregate and establishing connections with neighboring aggregates; see FIGS. 12A-B) can be identified post-culturing at day 2, day 4, day 6 and day 8. […] Thus, these capture time points have data on cell monolayers (Day 2), self-assembly (Days 3-4) and compact 3D aggregates (Days 5-8). Migratory 3D aggregate phenotypes are visible at Days 5 with maximum numbers of cellular bridges across aggregates seen at Days 6-7. […]

O=C(CCCCCCC(=O)Nc1ccccc1)NO [SAHA, suberoylanilide hydroxamic acid]
effect on size of 3D aggregates (3 μM SAHA, treatment on day 7 post-seeding): reduce the size of 3D aggregates | effect on cellular bridges (invading multicellular microstructures) (3 μM SAHA, treatment on day 7 post-seeding, imaged Day 9): disassociates invading multicellular microstructures; also recorded: loss of cellular bridges | reduction in size (aggregate depth) post-treatment with SAHA (SKOV3 3D aggregates on Si—TiB2, treated day 7 for 48 hours, compared to controls, mean±SEM, n=3, p<0.001): ~50%

Reference: patent US20230133393A1, “DIBORIDE MICROPATTERNED SURFACES FOR CELL CULTURE” (University of Houston System, priority 2020, published 2023)
